{"source": "ChEMBL document CHEMBL6103592", "about": "“Discovery of novel thiazole-pleuromutilin derivatives with potent antibacterial activity” (Eur J Med Chem, 2025)", "key": {"[1]": {"system": "Staphylococcus aureus", "assay": "Antibacterial activity against methicillin-resistant Staphylococcus aureus ATCC 43300 assessed as inhibition of visible bacterial growth incubated for 24 hrs by CLSI based broth microdilution method", "type": "functional"}, "[2]": {"system": "Streptococcus agalactiae", "assay": "Antibacterial activity against Streptococcus agalactiae assessed as inhibition of visible bacterial growth incubated for 24 hrs by CLSI based broth microdilution method", "type": "functional"}, "[3]": {"system": "Mycoplasma", "assay": "Antibacterial activity against Mycoplasma F3 assessed as inhibition of visible bacterial growth incubated for 24 hrs by CLSI based broth microdilution method", "type": "functional"}, "[4]": {"system": "Staphylococcus aureus", "assay": "Bactericidal activity against methicillin-resistant Staphylococcus aureus ATCC 43300 at 1 to 6 times MIC incubated upto 24 hrs by time-kill assay", "type": "functional, organism-based"}, "[5]": {"system": "Staphylococcus aureus", "assay": "Bactericidal activity against methicillin-resistant Staphylococcus aureus ATCC 43300 at 1 times MIC incubated upto 24 hrs by time-kill assay", "type": "functional, organism-based"}, "[6]": {"system": "Staphylococcus aureus", "assay": "Antibacterial activity against methicillin-resistant Staphylococcus aureus ATCC 43300 assessed as post antibiotic effect at 8 times MIC measured after 1 hr", "type": "functional"}, "[7]": {"system": "Staphylococcus aureus", "assay": "Antibacterial efficacy against methicillin-resistant Staphylococcus aureus ATCC 43300 infected in cyclophosphamide-induced neutropenic systemic infection Kunming mouse model assessed as reduction in bacterial load in kidney at 20 mg/kg, iv pretreated with cyclophosphamide for 1 hr followed by compound addition and measured after 5 days", "type": "functional, organism-based", "conditions": "time 5.0 day"}, "[8]": {"assay": "Cytotoxicity against human HEK293T cells assessed as cell viability at 200 micromol/L incubated for 24 hrs by CCK-8 assay relative to control", "type": "toxicity, cell-based, HEK-293T", "conditions": "dose 200 µmol/L, read-out: Activity"}, "[9]": {"system": "HepG2", "assay": "Cytotoxicity against human HepG2 cells assessed as cell viability at 200 micromol/L incubated for 24 hrs by CCK-8 assay relative to control", "type": "functional", "conditions": "HepG2, 24 h, dose 200 µmol/L, read-out: Activity"}, "[10]": {"system": "HepG2", "assay": "Cytotoxicity against human HepG2 cells assessed as cell viability incubated for 24 hrs by CCK-8 assay", "type": "functional, cell-based", "conditions": "HepG2, 24 h"}, "[11]": {"assay": "Acute toxicity in rat assessed as tremors at 2000 mg/kg, po measured for 14 days", "type": "organism-based", "conditions": "in vivo, 336 h, time 14 day"}, "[12]": {"assay": "Acute toxicity in rat assessed as decrease in locomotor activity at 2000 mg/kg, po measured for 14 days", "type": "organism-based", "conditions": "in vivo, 336 h, time 14 day"}, "[13]": {"assay": "Acute toxicity in rat assessed as reduction in water consumption at 2000 mg/kg, po measured for 14 days", "type": "organism-based", "conditions": "in vivo, 336 h, time 14 day"}, "[14]": {"assay": "Acute toxicity in rat assessed as body weight change at 2000 mg/kg, po measured at 24 hrs", "type": "organism-based", "conditions": "in vivo"}, "[15]": {"assay": "Acute toxicity in rat assessed as animal death at 2000 mg/kg, po measured for 14 days", "type": "organism-based", "conditions": "in vivo, 336 h, time 14 day"}, "[16]": {"assay": "Acute toxicity in rat assessed as pathological changes in heart at 2000 mg/kg, po measured for 14 days", "type": "organism-based", "conditions": "in vivo, 336 h, time 14 day"}, "[17]": {"assay": "Acute toxicity in rat assessed as pathological changes in liver at 2000 mg/kg, po measured for 14 days", "type": "organism-based", "conditions": "in vivo, 336 h, time 14 day"}, "[18]": {"assay": "Acute toxicity in rat assessed as pathological changes in lung at 2000 mg/kg, po measured for 14 days", "type": "organism-based", "conditions": "in vivo, 336 h, time 14 day"}, "[19]": {"assay": "Acute toxicity in rat assessed as necrosis of glandular epithelial cells at 2000 mg/kg, po measured for 14 days by H and E staining based analysis", "type": "organism-based", "conditions": "in vivo, 336 h, time 14 day"}, "[20]": {"assay": "Acute toxicity in po dosed rat assessed as lethal dose measured for 14 days […]", "type": "organism-based", "conditions": "in vivo, time 14 day"}, "[21]": {"assay": "Acute toxicity in rat assessed as absolute spleen weight at 2000 mg/kg, po measured for 7 days (reference value: 0.53 +/- 0.04g)", "type": "organism-based", "conditions": "in vivo, 168 h, time 7 day"}, "[22]": {"assay": "Acute toxicity in rat assessed as absolute kidney weight at 2000 mg/kg, po measured for 7 days (reference value: 1.60 +/- 0.16 g)", "type": "organism-based", "conditions": "in vivo, 168 h, time 7 day"}, "[23]": {"assay": "Acute toxicity in rat assessed as absolute uterus weight at 2000 mg/kg, po measured for 7 days (reference value: 0.52 +/- 0.18 g)", "type": "organism-based", "conditions": "in vivo, 168 h, time 7 day"}, "[24]": {"assay": "Acute toxicity in rat assessed as absolute heart weight at 2000 mg/kg, po administered for 7 days followed by readministration after 7 days and measured at 14 days (reference value: 0.77 +/- 0.12 g)", "type": "organism-based", "conditions": "in vivo, 336 h, time 14 day"}, "[25]": {"assay": "Acute toxicity in rat assessed as absolute spleen weight at 2000 mg/kg, po administered for 7 days followed by readministration after 7 days and measured at 14 days (reference value: 0.53 +/- 0.04 g)", "type": "organism-based", "conditions": "in vivo, 336 h, time 14 day"}, "[26]": {"assay": "Acute toxicity in rat assessed as absolute uterus weight at 2000 mg/kg, po administered for 7 days followed by readministration after 7 days and measured at 14 days (reference value: 0.52 +/- 0.18 g)", "type": "organism-based", "conditions": "in vivo, 336 h, time 14 day"}, "[27]": {"assay": "Acute toxicity in rat assessed as relative heart weight at 2000 mg/kg, po measured for 7 days (reference value: 0.40 +/- 0.06%)", "type": "organism-based", "conditions": "in vivo, 168 h, time 7 day"}, "[28]": {"assay": "Acute toxicity in rat assessed as relative kidney weight at 2000 mg/kg, po measured for 7 days (reference value: 0.83 +/- 0.08%)", "type": "organism-based", "conditions": "in vivo, 168 h, time 7 day"}, "[29]": {"assay": "Acute toxicity in rat assessed as relative uterus weight at 2000 mg/kg, po measured for 7 days (reference value: 0.27 +/- 0.09%)", "type": "organism-based", "conditions": "in vivo, 168 h, time 7 day"}, "[30]": {"assay": "Acute toxicity in rat assessed as relative heart weight at 2000 mg/kg, po administered for 7 days followed by readministration after 7 days and measured at 14 days (reference value: 0.40 +/- 0.06 %)", "type": "organism-based", "conditions": "in vivo, 336 h, time 14 day"}, "[31]": {"assay": "Acute toxicity in rat assessed as relative uterus weight at 2000 mg/kg, po administered for 7 days followed by readministration after 7 days and measured at 14 days (reference value: 0.27 +/- 0.09%)", "type": "organism-based", "conditions": "in vivo, 336 h, time 14 day"}}, "note": "pIC50: −log10 of the molar value. Activity calls are given as the source filed them. No cut-off for these calls is given here.", "data": [{"smiles": "C=C[C@]1(C)C[C@@H](OC(=O)CSc2nc(OC(=O)c3ccc(C(C)(C)C)cc3)cs2)[C@]2(C)[C@H](C)CC[C@]3(CCC(=O)[C@H]32)[C@@H](C)[C@@H]1O", "values": [{"measurement": "MIC", "setting": "[1]", "value": 0.25, "unit": "µg/mL"}, {"measurement": "MIC", "setting": "[2]", "value": 0.063, "unit": "µg/mL"}, {"measurement": "MIC", "setting": "[3]", "value": 0.125, "unit": "µg/mL"}, {"measurement": "Activity", "setting": "[4]", "value": "Dose-dependent-effect"}, {"measurement": "Activity", "setting": "[5]", "value": "Active"}, {"measurement": "PAE", "setting": "[6]", "value": 2.27, "unit": "h"}, {"measurement": "Activity", "setting": "[7]", "value": "inactive"}, {"measurement": "viability at 24 h, 200 µM", "setting": "[8]", "value": 60, "unit": "%"}, {"measurement": "viability at 200 µM", "setting": "[9]", "value": 94.3, "unit": "%"}, {"measurement": "pIC50", "setting": "[10]", "value": "< 3.70"}, {"measurement": "Activity", "setting": "[11]", "value": "Non-toxic"}, {"measurement": "Activity", "setting": "[12]", "value": "Non-toxic"}, {"measurement": "Activity", "setting": "[13]", "value": "Toxic"}, {"measurement": "Activity", "setting": "[14]", "value": "Non-toxic"}, {"measurement": "Activity", "setting": "[15]", "value": "Non-toxic"}, {"measurement": "Activity", "setting": "[16]", "value": "Non-toxic"}, {"measurement": "Activity", "setting": "[17]", "value": "Non-toxic"}, {"measurement": "Activity", "setting": "[18]", "value": "Non-toxic"}, {"measurement": "Activity", "setting": "[19]", "value": "Non-toxic"}, {"measurement": "LD50 at 336 h", "setting": "[20]", "value": 2000, "unit": "mg/kg"}, {"measurement": "Activity", "setting": "[21]", "value": 0.53, "unit": "g"}, {"measurement": "Activity", "setting": "[22]", "value": 1.54, "unit": "g"}, {"measurement": "Activity", "setting": "[23]", "value": 0.52, "unit": "g"}, {"measurement": "Activity", "setting": "[24]", "value": 0.78, "unit": "g"}, {"measurement": "Activity", "setting": "[25]", "value": 0.53, "unit": "g"}, {"measurement": "Activity", "setting": "[26]", "value": 0.5, "unit": "g"}, {"measurement": "Activity", "setting": "[27]", "value": 0.39, "unit": "%"}, {"measurement": "Activity", "setting": "[28]", "value": 0.8, "unit": "%"}, {"measurement": "Activity", "setting": "[29]", "value": 0.27, "unit": "%"}, {"measurement": "Activity", "setting": "[30]", "value": 0.36, "unit": "%"}, {"measurement": "Activity", "setting": "[31]", "value": 0.23, "unit": "%"}]}]}
